Experimental data published in PubChem BioAssay AID1963969 (Molecular Pharmacology Branch, DTP, NCI, 2024).

System: 817829-284-R-J1-PDC multi-cell spheroid viability
Assay: Anticancer human tumor 817829-284-R-J1-PDC patient-derived colon adenocarcinoma cell line growth inhibition [PI3K]
Settings: for IC50: curve of first compound; for viability, T/C: stronger effect = lower value; active means viability on the fitted dose curve at most 10% of control; inactive means the rest
Source text: Combinatorial screen of targeted agents with the PI3K inhibitors inavolisib, alpelisib, duvelisib, and copanlisib in multi-cell type tumor spheroids
A high-throughput screen of multi-cell type tumor spheroids was designed to identify active combinations of targeted small molecules and PI3K pathway inhibitors. Complex spheroids include a stromal component modeled by human endothelial cells (HUVEC) and fibroblasts modeled by human mesenchymal stem cells (MSCs). The concentration ranges selected for each drug and investigational agent were based upon clinically achievable concentrations if the clinical Cmax of the agent was known.
Compounds. The drugs and investigational agents: inavolisib (NSC800729), alpelisib (NSC765974), duvelisib (NSC772469), copanlisib (NSC816437), ipatasertib (NSC767898), afuresertib (NSC778305), talazoparib (NSC767125), sapanisertib (NSC764658), selumetinib (NSC741078), tovorafenib (DAY101, NSC766906), vemurafenib (NSC761431), ravoxertinib (NSC781343), sotorasib (NSC818433), MRTX1133 (NSC 836407), abemaciclib (NSC 768073), palbociclib (NSC758247), venetoclax (NSC 766270), SY5609 (NSC837396), enzalutamide (NSC755605), and darolutamide (NSC825331), were obtained from the National Cancer Institute (NCI) Developmental Therapeutics Program Chemical Repository. The FDA-approved anticancer drug set is available from the NCI Developmental Therapeutics Program. […] The stock solutions were prepared in dimethyl sulfoxide (DMSO, Sigma-Aldrich, St. Louis, MO, cat. D2650) at 800-fold the tested concentration and stored at -70 degrees C prior to their use. All drugs and investigational agents were tested over a range starting from a high concentration at or near the clinical Cmax and decreasing in half-log increments. If the clinical Cmax for an agent had not been determined, the highest concentration tested was 10 microM.
Cell Culture. All cells were maintained in an incubator at 37 degrees C and 5% CO2 with 95% humidity. The PDC lines were cultured according to standard operating procedures established by the NCI PDMR (https://pdmr.cancer.gov/sops/default.htm). All PDCs were thawed and cultured in Matrigel-coated flasks prepared with a working solution of 1X Ham's F-12 nutrient mix, without supplementation (Invitrogen, Waltham, MA, cat. 11765054), 100 U/mL penicillin-streptomycin (Invitrogen, cat. 15140122), and 2.5% Matrigel (Corning Inc., Corning, NY, cat. 354248) for the first three passages. The 354836-022-R-J1-PDC, 475296-252-R-J1-PDC, and 997726-040-R-J2-PDC lines were cultured in 6A media, which includes advanced DMEM/F-12 (Thermo Fisher Scientific, cat. 12634028), 10 mM HEPES (Thermo Fisher Scientific, cat. 15630080), 1X GlutaMAX supplement (Thermo Fisher Scientific, cat. 35050061), 0.1 mg/mL primocin (InvivoGen, San Diego, CA, cat. ant-pm-2), 10% defined fetal bovine serum, heat inactivated (HyClone Laboratories Inc., Logan, UT, cat. SH30070.03HI), 50% L-WRN conditioned media (ATCC, cat. CRL-3276), 1.25 mM N-Acetyl-L-cysteine (Sigma-Aldrich, cat. A9165), 10 mM nicotinamide (Sigma-Aldrich, cat. N0636), 1X B-27 supplement (Thermo Fisher Scientific, cat. 17504044), 1X N-2 supplement (Thermo Fisher Scientific, cat. 17502048), and 10 microM Y-27632 dihydrochloride (Tocris Bioscience, Bristol, United Kingdom, cat. 1254). The 624824-186-R-J2-PDC line was cultured in 6C/Colon 1B media, which includes all 6A media components plus 50 ng/mL human EGF recombinant protein (Thermo Fisher Scientific, cat. PHG0311). […]

[1] = second compound 0.00316 µM, first compound 0.0316 µM
[2] = second compound 0.00316 µM, first compound 0.1 µM
[3] = second compound 0.01 µM, first compound 0.0316 µM
[4] = second compound 0.01 µM, first compound 0.1 µM
[5] = second compound 0.0316 µM, first compound 0.0316 µM
[6] = second compound 0.0316 µM, first compound 0.1 µM
[7] = second compound 0.1 µM, first compound 0.0316 µM
[8] = second compound 0.1 µM, first compound 0.1 µM
[9] = second compound 0.316 µM, first compound 0.0316 µM
[10] = second compound 0.316 µM, first compound 0.1 µM
[11] = second compound 1 µM, first compound 0.0316 µM
[12] = second compound 1 µM, first compound 0.1 µM
[13] = second compound 0.00316 µM, first compound 0.316 µM
[14] = second compound 0.00316 µM, first compound 1 µM
[15] = second compound 0.00316 µM, first compound 3.16 µM
[16] = second compound 0.00316 µM, first compound 10 µM
[17] = second compound 0.01 µM, first compound 0.316 µM
[18] = second compound 0.01 µM, first compound 1 µM
[19] = second compound 0.01 µM, first compound 3.16 µM
[20] = second compound 0.01 µM, first compound 10 µM
[21] = second compound 0.0316 µM, first compound 0.316 µM
[22] = second compound 0.0316 µM, first compound 1 µM
[23] = second compound 0.0316 µM, first compound 3.16 µM
[24] = second compound 0.0316 µM, first compound 10 µM
[25] = second compound 0.1 µM, first compound 0.316 µM
[26] = second compound 0.1 µM, first compound 1 µM
[27] = second compound 0.1 µM, first compound 3.16 µM
[28] = second compound 0.1 µM, first compound 10 µM
[29] = second compound 0.316 µM, first compound 0.316 µM
[30] = second compound 0.316 µM, first compound 1 µM
[31] = second compound 0.316 µM, first compound 3.16 µM
[32] = second compound 0.316 µM, first compound 10 µM
[33] = second compound 1 µM, first compound 0.316 µM
[34] = second compound 1 µM, first compound 1 µM
[35] = second compound 1 µM, first compound 3.16 µM
[36] = second compound 1 µM, first compound 10 µM
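Further: spheroids exposed to agents for seven days before readout.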
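Wherever viability, T/C is given: percent of vehicle DMSO control viability which is 100%.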

CC(=O)c1c(C)c2cnc(Nc3ccc(N4CCNCC4)cn3)nc2n(C2CCCC2)c1=O + CC(Nc1ccc2c(c1)OCCn1cc(N3C(=O)OCC3C(F)F)nc1-2)C(N)=O
8.65 nM: IC50 (second compound 1 µM)
inactive: viability, T/C (second compound 0.00316 µM, first compound 0.000316 µM) 79.4% | viability, T/C (second compound 0.00316 µM, first compound 0.001 µM) 78.4% | viability, T/C (second compound 0.00316 µM, first compound 0.00316 µM) 74.4% | viability, T/C (second compound 0.00316 µM, first compound 0.01 µM) 73.2% | viability, T/C [1] 142% | viability, T/C [2] 31.9% | viability, T/C (second compound 0.01 µM, first compound 0.000316 µM) 124% | viability, T/C (second compound 0.01 µM, first compound 0.001 µM) 74.5% | viability, T/C (second compound 0.01 µM, first compound 0.00316 µM) 107% | viability, T/C (second compound 0.01 µM, first compound 0.01 µM) 56.3% | viability, T/C [3] 58.8% | viability, T/C [4] 48.4% | viability, T/C (second compound 0.0316 µM, first compound 0.000316 µM) 73.5% | viability, T/C (second compound 0.0316 µM, first compound 0.001 µM) 80% | viability, T/C (second compound 0.0316 µM, first compound 0.00316 µM) 84.3% | viability, T/C (second compound 0.0316 µM, first compound 0.01 µM) 62.5% | viability, T/C [5] 53.4% | viability, T/C [6] 31.4% | viability, T/C (second compound 0.1 µM, first compound 0.000316 µM) 85.1% | viability, T/C (second compound 0.1 µM, first compound 0.001 µM) 86% | viability, T/C (second compound 0.1 µM, first compound 0.00316 µM) 60.1% | viability, T/C (second compound 0.1 µM, first compound 0.01 µM) 105% | viability, T/C [7] 46.8% | viability, T/C [8] 37% | viability, T/C (second compound 0.316 µM, first compound 0.000316 µM) 51.7% | viability, T/C (second compound 0.316 µM, first compound 0.001 µM) 52.2% | viability, T/C (second compound 0.316 µM, first compound 0.00316 µM) 69.7% | viability, T/C (second compound 0.316 µM, first compound 0.01 µM) 52.4% | viability, T/C [9] 38.3% | viability, T/C [10] 23.3% | viability, T/C (second compound 1 µM, first compound 0.000316 µM) 68.8% | viability, T/C (second compound 1 µM, first compound 0.001 µM) 68.7% | viability, T/C (second compound 1 µM, first compound 0.00316 µM) 53.5% | viability, T/C (second compound 1 µM, first compound 0.01 µM) 55.6% | viability, T/C [11] 29.7% | viability, T/C [12] 27.2%
13.7 nM: IC50 (second compound 0.316 µM)
69.7 nM: IC50 (second compound 0.00316 µM)
76.1 nM: IC50 (second compound 0.01 µM)
28.7 nM: IC50 (second compound 0.1 µM)
33.9 nM: IC50 (second compound 0.0316 µM)

CCCS(=O)(=O)Nc1ccc(F)c(C(=O)c2c[nH]c3ncc(-c4ccc(Cl)cc4)cc23)c1F + CC(Nc1ccc2c(c1)OCCn1cc(N3C(=O)OCC3C(F)F)nc1-2)C(N)=O
1680 nM: IC50 (second compound 0.01 µM)
inactive: viability, T/C [1] 67% | viability, T/C [2] 57.9% | viability, T/C [13] 61.3% | viability, T/C [14] 51.6% | viability, T/C [15] 49.6% | viability, T/C [3] 95.3% | viability, T/C [4] 56.5% | viability, T/C [17] 67.8% | viability, T/C [18] 56% | viability, T/C [19] 49.7% | viability, T/C [5] 69.3% | viability, T/C [6] 52.4% | viability, T/C [21] 69.7% | viability, T/C [22] 32.1% | viability, T/C [23] 65.4% | viability, T/C [7] 38.9% | viability, T/C [8] 53% | viability, T/C [25] 47.8% | viability, T/C [26] 45.9% | viability, T/C [27] 38.5% | viability, T/C [9] 43.5% | viability, T/C [10] 57.1% | viability, T/C [29] 55% | viability, T/C [30] 43.1% | viability, T/C [31] 47.3% | viability, T/C [11] 55.9% | viability, T/C [12] 44% | viability, T/C [33] 46.9% | viability, T/C [34] 34% | viability, T/C [35] 50.1%
2230 nM: IC50 (second compound 0.00316 µM)
< 31.6 nM: IC50 (second compound 0.1 µM) | IC50 (second compound 0.316 µM) | IC50 (second compound 1 µM)
3740 nM: IC50 (second compound 0.0316 µM)
active: viability, T/C [16] 3.89% | viability, T/C [20] 4.85% | viability, T/C [24] 4.59% | viability, T/C [28] 5.88% | viability, T/C [32] 6.23% | viability, T/C [36] 6.69%

CNC(=O)c1ccc(N2C(=S)N(c3ccc(C#N)c(C(F)(F)F)c3)C(=O)C2(C)C)cc1F + CC(Nc1ccc2c(c1)OCCn1cc(N3C(=O)OCC3C(F)F)nc1-2)C(N)=O
> 10000 nM: IC50 (second compound 0.00316 µM) | IC50 (second compound 0.01 µM) | IC50 (second compound 0.0316 µM)
4180 nM: IC50 (second compound 0.1 µM)
< 31.6 nM: IC50 (second compound 1 µM)
3370 nM: IC50 (second compound 0.316 µM)
inactive: viability, T/C [1] 57.7% | viability, T/C [2] 88.8% | viability, T/C [13] 109% | viability, T/C [14] 75.6% | viability, T/C [15] 61.9% | viability, T/C [16] 50.9% | viability, T/C [3] 86.1% | viability, T/C [4] 77.6% | viability, T/C [17] 89.1% | viability, T/C [18] 70.7% | viability, T/C [19] 60.5% | viability, T/C [20] 71.4% | viability, T/C [5] 70.1% | viability, T/C [6] 79.2% | viability, T/C [21] 87.5% | viability, T/C [22] 56.7% | viability, T/C [23] 67.1% | viability, T/C [24] 54.6% | viability, T/C [7] 56.5% | viability, T/C [8] 53.4% | viability, T/C [25] 65.9% | viability, T/C [26] 48.9% | viability, T/C [27] 61.6% | viability, T/C [28] 27.3% | viability, T/C [9] 46.8% | viability, T/C [10] 61.8% | viability, T/C [29] 58% | viability, T/C [30] 53.5% | viability, T/C [31] 51% | viability, T/C [32] 32.8% | viability, T/C [11] 32.4% | viability, T/C [12] 40.7% | viability, T/C [33] 44.9% | viability, T/C [34] 45.9% | viability, T/C [35] 41.4% | viability, T/C [36] 20.6%
